This experiment concerns P. falciparum 3D7 growth, pLDH absorbance. Put plainly: P. falciparum 3D7 growth inhibition, dose response, strain 3D7 (AID 2305).

The structures appear in SMILES notation.

Take `CCn1c(-c2ccccc2)cc2nnc3ccccc3c21`: the IC50 (commonly the midpoint of a concentration-inhibition curve) stood at 770 nM. With `O=C1CCCN1CCCNCc1ccc(-c2cccc(-c3nc4ccccc4[nH]3)c2)cc1` the figure was 1020 nM; with `O=[N+]([O-])c1ccc2c(c1)c1ccccc1n2Cc1ccccc1O`, 1110 nM; with `O=C(Nc1ccc(OC(F)(F)F)cc1)Nc1ccc([N+](=O)[O-])cc1`, 880 nM. The same measure for `O=C(Nc1cccc(CN2CCCN(Cc3ccc4c(c3)OCO4)CC2)c1)c1cc2ccccc2s1`: 990 nM; for `CCCCn1c(N)c(N(Cc2ccco2)C(=O)C=Cc2cc(OC)c3c(c2)OCCO3)c(=O)[nH]c1=O`: 950 nM. With `CN(C)CCN(C)C(=O)c1cc(-c2ccncc2)c(-c2ccc(Cl)c(O)c2)o1` the figure was 1050 nM; with `O=C(N1CCN(c2ccc(C(F)(F)F)cc2[N+](=O)[O-])CC1)C(Cl)(Cl)Cl`, 710 nM; with `Brc1ccc(Nc2nc(NCc3ccccc3)c3ccccc3n2)cc1`, 340 nM. For `COc1ccc(Cc2c(C)nc3nc(N)nc(N)c3c2C)cc1OC`, the IC50 is 910 nM.

In the case of `CN(C)c1ccc(-c2nnc(Sc3ccc(C#N)c([N+](=O)[O-])c3)n2Cc2ccco2)cc1`, the half-maximal inhibitory concentration (IC50) stood at 850 nM. For `OC(c1n[nH]c(=S)n1-c1ccccc1)C(O)c1n[nH]c(=S)n1-c1ccccc1` (stereo not drawn), the 50% inhibitory concentration (IC50) stood at 740 nM. The same measure for `COc1ccc(CNc2ncnc3c2[nH]c2ccc(F)cc23)cc1`: 980 nM.

Consider `COc1cc2ncnc(Nc3ccc4nc(-c5ccccc5)[nH]c4c3)c2cc1OC`, for which the IC50 came out at 440 nM. Take `O=c1cc(NCCCNCc2ccc(C(F)(F)F)cc2F)[nH]c2ccccc12`: the 50% inhibitory concentration (IC50) came out at 960 nM.

`CC(C)C[C@@H](C(=O)N[C@@H](CCCCNC(=O)OCc1ccccc1)C(=O)Nc1nccs1)[C@H](C)N(O)C=O` returned an IC50 of 190 nM.

On to `O=C(Nc1cccc(OC2CCN(Cc3ccccc3)CC2)c1)c1ccc(Cl)c(Cl)c1`, for which the concentration for half-maximal inhibition (IC50) was 720 nM. Molecule `Cc1cc(OCC2CCCO2)c2cc(NC(=O)C(=O)Nc3ccc4nc(C)cc(OCC5CCCO5)c4c3)ccc2n1` (stereo not drawn) came in with an IC50 of 800 nM. Molecule `Cc1cccc(C(=O)Nc2ccc(N3CCCN(Cc4cccc(O)c4)CC3)cc2)c1` came in with an IC50 of 1420 nM. With `COc1cc(NC(=O)c2nn(CCCN3CCC(N4CCCC4)CC3)cc2-c2ccc(Cl)c(Cl)c2)cc(OC)c1OC` the figure was 560 nM; with `C[C@@H]1CN(c2cnn(Cc3cccc(NC(=O)Nc4cccc(C(F)(F)F)c4)c3)c(=O)c2Cl)C[C@H](C)N1`, 820 nM; with `c1ccc(CCNc2ccnc(Nc3ccc4cn[nH]c4c3)n2)cc1`, 470 nM. The same measure for `CCc1c[nH]c2c(N(c3ccccc3)S(C)(=O)=O)cc(C(=O)N[C@@H](Cc3ccccc3)[C@H](O)CNCc3cccc(C(F)(F)F)c3)cc12`: 1000 nM; for `COc1ccc(NC(=O)N2CCCN(CCCCCNC(=O)/C=C/c3ccc(Cl)cc3)CC2)cc1Cl`: 810 nM; for `CN(CCCCCN1CCC(NC(=O)Nc2ccc(C(F)(F)F)cc2)C1)C(=O)/C=C/c1ccc(Cl)c(Cl)c1` (stereo not drawn): 770 nM. With `CCCc1cc(NC2CCN(C)CC2)nc(Nc2ccc(C)cc2)n1` the figure was 900 nM; with `Cc1cccc2[nH]c(-c3ccc(-c4ccc(CN5CCN(CCO)CC5)cc4)cc3)nc12`, 600 nM; with `O=C(NCCCN1CCC(Cc2ccccc2)CC1)c1cc2c(Cl)nc3ccccc3c2s1`, 740 nM.

With `CCOc1ccc(Nc2cc(C)nc(Nc3ccc(OCC)cc3)n2)cc1`, the IC50 turned out to be 870 nM. On to `O=C(C=Cc1ccc(Cl)c(Cl)c1)NCCCCCN1CCC(CCNC(=O)c2sc3ccccc3c2Cl)CC1`, for which the half-maximal inhibitory concentration (IC50) is 1010 nM. `Cc1cccc2[nH]c(-c3ccc(-c4cccc(CNCc5ccc(CN)cc5)c4)s3)nc12` came in with an IC50 of 610 nM.

`COc1ccc(CCn2c(C3CCCCC3)nc3oc4ccccc4c(=O)c3c2=O)cc1` returned an IC50 of 950 nM.

Consider `CC(=O)Nc1nc(C(=O)Nc2cccc(-c3ccc4c(cnn4CC4CC4)c3)c2)cs1`, for which the concentration for half-maximal inhibition (IC50) came out at 740 nM. On to `COc1ccc2nccc(NN=Cc3ccc(N(C)C)cc3)c2c1`, for which the IC50 is 800 nM. The molecule `Cc1cc2[nH]c(-c3ccc(C(=O)NCCCN4CCN(c5cccc(Cl)c5)CC4)cc3F)nc2cc1Cl` displayed an IC50 of 480 nM.

`COc1cc(Cc2cnc(N)nc2N)cc(OCCCCC2SC(=O)NC2=O)c1OC` (stereo not drawn): the IC50 is 30 nM.

`COc1ccc(C=Cc2cc(N)c3ccccc3n2)cc1` gave a half-inhibitory concentration (IC50) of 970 nM. With `CCn1c(-c2nonc2N)nc2c(-c3cccc(NC(=O)Nc4cccc(OC)c4)c3)ncc(OCCCN)c21` the figure was 770 nM. With `Cn1c(=N)cc(-c2cccc(I)c2)c2c(=O)[nH]c(N)nc21` the figure was 270 nM; with `Cc1ccc(-c2noc(COc3ccccc3C(=O)NC3CCCC3)n2)cc1`, 880 nM. With `COc1ccc(CNCc2ccc(F)cc2)cc1-c1ccc(S(=O)(=O)NCCN2CCCC2)c(C)c1` the figure was 730 nM; with `CCCc1ccc(-c2csc(NC(=O)c3ccc([N+](=O)[O-])o3)n2)cc1`, 1210 nM; with `O=C(NC1CCC1)C1CCN(C(c2ccc(Cl)cc2)c2ccc(Cl)cc2)CC1`, 560 nM. `CN1CCN(CC(=O)Nc2ccc(-c3csc(-c4nc5ccccc5[nH]4)c3)cc2)CC1` registered an IC50 of 1560 nM. The same measure for `CCC1(C)N=C(N)N=C(N)N1c1ccccc1` (stereo not drawn): 790 nM; for `CC(=O)N(Cc1ccccc1-c1cccc(CNCc2ccc3c(c2)OCO3)c1)C1CCN(Cc2ccccc2)CC1`: 1050 nM; for `CN1CC=C(c2c[nH]c3ccc(Br)cc23)CC1`: 1190 nM. The same measure for `O=C(/C=C/c1ccc(Cl)c(Cl)c1)NCCCCCCN1CCN(C(=O)Nc2ccc(F)c(Cl)c2)CC1`: 940 nM. The same measure for `COc1ccc2ccccc2c1CNCCCCCCNCc1c(OC)ccc2ccccc12`: 710 nM.

In turn, `COc1ccc(C2CCN(CCN3CCC(NC(=O)c4ccc(-c5cccc(C(F)(F)F)c5C(F)(F)F)cc4)CC3)CC2)c(OC)c1` registered a concentration for half-maximal inhibition (IC50) of 420 nM. With `Nc1c(C(=O)NCCCCN2CCN(c3nsc4ccccc34)CC2)sc2ccccc12` the figure was 1320 nM; with `CN1CC=C(c2c[nH]c3ccc(OC(=O)c4ccccc4)cc23)C1`, 800 nM; with `N#Cc1cc(C(=O)Nc2ccccc2)c(N)nc1SCC(=O)NC(c1ccccc1)c1cccs1` (stereo not drawn), 610 nM.

As for `CN(CC(=O)N1CCN(S(=O)(=O)c2cccc(Cl)c2)CC1CN1CCCC1)c1ccc(Cl)c(Cl)c1` (stereo not drawn), the 50% inhibitory concentration (IC50) came to 1240 nM. Compared with the last molecule, the IC50 is about 2-fold higher.

`Cc1ccc(Nc2ccnc(Nc3ccc(F)c(Cl)c3)n2)cc1O` returned a half-maximal inhibitory concentration (IC50) of 730 nM.

Regarding `CN(C)c1cccc(CN2CC=C(c3c[nH]c4ccc(Cl)cc34)CC2)c1`, the IC50 stood at 660 nM.

Turning to `COc1ccc(CNCc2cccc(-c3ccc(-c4nc5ccc(C(F)(F)F)cc5[nH]4)cc3)c2)cc1`, the IC50 amounted to 130 nM. With `CN1CCN(c2ccnc3ccc(NC(=O)Nc4c(Cl)cccc4Cl)cc23)CC1` the figure was 880 nM; with `Fc1ccc2nc(-c3cccc(-c4ccc(CNCc5ccccc5)cc4)c3)[nH]c2c1`, 270 nM; with `Cc1ccc(O)cc1Nc1c(C(N)=O)cnc2ccc(-c3cncs3)cc12`, 670 nM. The same measure for `CCOC(=O)c1ccc(NC(=O)Nc2cccc(-c3cccc(-c4nc5ccc(F)cc5[nH]4)c3)c2)cc1`: 90 nM; for `COc1ccc(CNCc2cccc(-c3cccc(-c4nc5ccccc5[nH]4)c3)c2)cc1`: 370 nM; for `CC(C(=O)N1CCCC1)N1CCN(S(=O)(=O)c2ccc(C(C)(C)C)cc2)CC1` (stereo not drawn): 640 nM.
